Results: patent US11801252B2, “Pharmaceutical composition” (Jiangsu Hengrui Medicine Co., Ltd., priority 2021, dated 2023)
Values joined by “and” are separate entries in the source; they are usually repeats but may differ in a detail not shown here. Identical values can stand only once. Like-named read-outs stand apart in the source and are kept apart here.

Tests used:
[1] = In vivo pharmacokinetics study in healthy subjects, 75-450 mg single dose, fasting (Test Example 2); design: species or system human (healthy male subjects); details: for CLz/F of SNAC / t1/2z of SNAC / λz of SNAC / AUC—% Extrap of SNAC / MRT last / MRT inf / AUC(0-inf) / Cmax / AUC(0-t) / Vd/F / Tmax: single oral, fasting, healthy male subjects; for CLz/F of SNAC / t1/2z of SNAC / λz of SNAC / AUC—% Extrap of SNAC / MRT last / MRT inf / AUC(0-inf) / Cmax / AUC(0-t) / Vd/F: Mean ± SD; for MRT last / MRT inf / AUC(0-inf) / Cmax / AUC(0-t) / Vd/F / Tmax: human; for MRT last: read-out: MRT0-t of SNAC; for MRT inf: read-out: MRT0-∞ of SNAC; for AUC(0-inf): read-out: AUC0-∞ of SNAC; for AUC(0-t): read-out: AUC0-t of SNAC; for Vd/F: read-out: Vz/F of SNAC; for Tmax: median
Description: To study the pharmacokinetic characteristics of 75 mg, 150 mg, 300 mg and 450 mg doses of abiraterone acetate tablets in healthy subjects after a single oral administration under fasting state.
A single-center, open-label, sequential trial design was applied. A total of 16 healthy male subjects were planned to be enrolled in the study, who entered the four dose groups sequentially and the washout period of each dose group was seven days. Blood samples were collected at a series of time points, and safety test was performed. The blood concentration of abiraterone at different time points after dosing was determined by HPLC-MS/MS. Pharmacokinetic parameters were calculated using non-compartmental model and statistically analyzed.
The subjects were admitted to the ward before dinner on the day before the administration of each studied dose. […] They were fasting for at least 10 hours before dosing. According to the trial protocol, subjects were given a single oral administration of the investigational drug, abiraterone acetate tablets, 75 mg (split 150 mg tablet along the score line into half a tablet), 150 mg (150 mg×1 tablet), 300 mg (150 mg×2 tablets) and 450 mg (150 mg×3 tablets) with 240 mL water under fasting state in the morning on the day of trial of each dose group. Liquid was prohibited before administration and within 1 h after administration, and standard lunch and dinner (a standardized light diet) were taken about 4 and 10 h after administration.
Test Formulation (T): Abiraterone acetate tablets (Formulation 5), specification: 150 mg.
PKPS (PKPS, all enrolled in the group and receiving the study drug, at least one subject with analyzable PK parameters during the trial) was used for the statistical analysis of pharmacokinetic parameters.
The linearity between AUC and Cmax and the administration dose was analyzed by confidence interval method, and linear regression analysis was performed on the AUC and Cmax after natural logarithmic transformation respectively and the administration dose, to observe the slope of the linear regression equation and 90% confidence interval.

[2] = as above; design: species or system human (healthy male subjects); details: single oral, healthy male subjects
[3] = after Formulation 5, dose group A 75 mg (equal SNAC content), N = 16
[4] = after Formulation 5, dose group B 150 mg (equal SNAC content), N = 15
[5] = after Formulation 5, dose group C 300 mg (equal SNAC content), N = 15
[6] = after Formulation 5, dose group D 450 mg (equal SNAC content), N = 15
[7] = dose range 75-450 mg of test formulation, confidence interval method, N = 16
[8] = blood, after Formulation 5, dose group A 75 mg (equal SNAC content), N = 16
[9] = blood, after Formulation 5, dose group B 150 mg (equal SNAC content), N = 15
[10] = blood, after Formulation 5, dose group C 300 mg (equal SNAC content), N = 15
[11] = blood, after Formulation 5, dose group D 450 mg (equal SNAC content), N = 15
[12] = plasma, after Formulation 5, dose group A 75 mg (equal SNAC content), N = 16
[13] = plasma, after Formulation 5, dose group B 150 mg (equal SNAC content), N = 15
[14] = plasma, after Formulation 5, dose group C 300 mg (equal SNAC content), N = 15
[15] = plasma, after Formulation 5, dose group D 450 mg (equal SNAC content), N = 15

Compound: O=C([O-])CCCCCCCNC(=O)c1ccccc1O.[Na+] [SNAC, sodium 8-(salicylamido)caprylate]
- CLz/F of SNAC [1, 3]: 2.66 ×10^2 L · h^−1 and 2.66 ± 0.64 ×10^2 L · h^−1
- t1/2z of SNAC [1, 3]: 3.53 h and 3.53 ± 2.54 h
- λz of SNAC [1, 3]: 0.28 ± 0.14 h⁻¹
- AUC—% Extrap of SNAC [1, 4]: 0.63 ± 0.62%
- CLz/F of SNAC [1, 4]: 2.36 ×10^2 L · h^−1 and 2.36 ± 0.62 ×10^2 L · h^−1
- t1/2z of SNAC [1, 4]: 2.94 h and 2.94 ± 1.39 h
- λz of SNAC [1, 4]: 0.29 ± 0.14 h⁻¹
- AUC—% Extrap of SNAC [1, 5]: 0.95 ± 0.91%
- CLz/F of SNAC [1, 5]: 2.22 ×10^2 L · h^−1 and 2.22 ± 0.51 ×10^2 L · h^−1
- t1/2z of SNAC [1, 5]: 5.35 h and 5.35 ± 3.92 h
- λz of SNAC [1, 5]: 0.19 ± 0.11 h⁻¹
- AUC—% Extrap of SNAC [1, 6]: 0.50 ± 0.44%
- CLz/F of SNAC [1, 6]: 2.22 ×10^2 L · h^−1 and 2.22 ± 0.51 ×10^2 L · h^−1
- t1/2z of SNAC [1, 6]: 4.88 h and 4.88 ± 2.37 h
- λz of SNAC [1, 6]: 0.18 ± 0.09 h⁻¹
- Slope of the linear regression equation (β), LnAUC0-t of SNAC vs dose [1, 7]: 1.10
- Slope of the linear regression equation (β), LnAUC0-∞ of SNAC vs dose [1, 7]: 1.10
- Slope of the linear regression equation (β), LnCmax of SNAC vs dose [1, 7]: 1.00
- MRT last [1, 8]: 1.32 ± 0.52 h
- MRT inf [1, 8]: 1.58 ± 0.76 h
- MRT last [1, 9]: 1.21 ± 0.48 h
- MRT inf [1, 9]: 1.32 ± 0.5 h
- MRT last [1, 10]: 1.28 ± 0.36 h
- MRT inf [1, 10]: 1.55 ± 0.54 h
- AUC(0-inf) [1, 11]: 2130 ± 491 ng·h/mL
- MRT last [1, 11]: 1.4 ± 0.53 h
- MRT inf [1, 11]: 1.53 ± 0.51 h
- Cmax [1, 12]: 407 ng/mL
- AUC(0-t) [1, 12]: 291 ng·h/mL
- AUC(0-inf) [1, 12]: 295 ± 61.4 ng·h/mL
- Vd/F [1, 12]: 1280 L
- Cmax [1, 13]: 977 ng/mL
- AUC(0-t) [1, 13]: 668 ng·h/mL
- AUC(0-inf) [1, 13]: 672 ± 152 ng·h/mL
- Vd/F [1, 13]: 1010 L
- Tmax [1, 13]: 0.5 h
- Cmax [1, 14]: 1870 ng/mL
- AUC(0-inf) [1, 14]: 1410 ± 285 ng·h/mL
- Vd/F [1, 14]: 1740 L
- Tmax [1, 14]: 0.5 h
- Cmax [1, 15]: 2460 ng/mL
- AUC(0-t) [1, 15]: 2120 ng·h/mL
- Vd/F [1, 15]: 1520 L
- Tmax [1, 15]: 0.5 h
- AUC—% Extrap of SNAC ([2]; after Formulation 5, dose group A 75 mg (equal SNAC content), N = 16, Mean ± SD): 1.23 ± 1.12%
- Tmax ([2]; human, plasma, after Formulation 5, dose group A 75 mg (equal SNAC content), N = 16, median): 0.38 h
- AUC(0-t) ([2]; human, plasma, after Formulation 5, dose group C 300 mg (equal SNAC content), N = 15, Mean ± SD, read-out: AUC0-t of SNAC): 1400 ng·h/mL
